Test results reported in patent publication US9783524B2, “Protein tyrosine kinase modulators and methods of use” (BETTA PHARMACEUTICALS CO., LTD., priority 2013, dated 2017).
Like-named read-outs stand apart in the source and are kept apart here.

What was measured:
EGFR (T790M) (h) = format: biochemical, human
Procedure: (§1) Assay conditions included 10 μM ATP and 100 nM test compounds.
(§2) All reactions are initiated by the addition of the MgATP mix. After incubation for 40 minutes at room temperature, the reaction is stopped by the addition of 3% phosphoric acid solution. 10 μL of the reaction is then spotted onto a P30 filtermat and washed three times for 5 minutes in 75 mM phosphoric acid and once in methanol prior to drying and scintillation counting. This assay is performed by Millipore. The experiment is carried out in duplicate. The value for the control sample (DMSO) was set to 100%, and the values for the compound-treated samples were expressed as activity relative to the control sample.

EGFR (h) = format: biochemical, human
Procedure: as §1
(§3) All reactions are initiated by the addition of the MgATP mix. After incubation for 40 minutes at room temperature, the reaction is stopped by the addition of 3% phosphoric acid solution. 10 μL of the reaction is then spotted onto a P30 filtermat and washed three times for 5 minutes in 75 mM phosphoric acid and once in methanol prior to drying and scintillation counting. […] The experiment is carried out in duplicate. The value for the control sample (DMSO) was set to 100%, and the values for the compound-treated samples were expressed as activity relative to the control sample.
(§4) (specific activity approx. 500 cpm/pmol, concentration as required) and 0.1 μM test compound.

EGFR (T790M, L858R) (h) = format: biochemical, human
Procedure: as §1, §3, §4

EGFR (L858R) (h) = format: biochemical, human
Procedure: as §1, §3, §4

ALK (h) = format: biochemical, human; settings: 0.1 μM test compound, 10 μM ATP; remaining activity relative to DMSO control = 100%
Procedure: as §1, §2

[1] = tested on: activated and resistant T790M forms of EGFR; assay: In vitro cellular assays, overall statement; format: cell-based; settings: result in words
Procedure: Effects of test compounds on in vitro proliferation were measured by MTS cell viability assay.

[2] = 0.1 μM test compound, 10 μM ATP, remaining activity relative to DMSO control = 100%

SMILES | Activity (control) % EGFR (T790M) (h) (EGFR (T790M) (h)) [%] | Activity (control) % EGFR (h) (EGFR (h)) [%] | Activity (control) % EGFR (T790M, L858R) (h) (EGFR (T790M, L858R) (h)) [%] | Activity (control) % EGFR (L858R) (h) (EGFR (L858R) (h)) [%] | Activity (control) % ALK (h) (ALK (h)) [%] | activity against both activated and resistant T790M forms of EGFR in vitro cellular assays [1] | Activity (control) % EGFR (T790M) (h) (EGFR (T790M) (h); [2]) [%] | Activity (control) % EGFR (T790M, L858R) (h) (EGFR (T790M, L858R) (h); [2]) [%] | Activity (control) % EGFR (h) (EGFR (h); [2]) [%] | Activity (control) % EGFR (L858R) (h) (EGFR (L858R) (h); [2]) [%]
C=CC(=O)Nc1cccc(Nc2nc(Nc3ccc(N4CCN(C(C)=O)CC4)cc3OC)ncc2C(F)(F)F)c1 [CO-1686, reference compound] | 21 | 92 | 7 | 97 | – | – | – | – | – | –
COc1cc(N2CCC(N(C)C)CC2)ccc1Nc1ncc(Cl)c(Nc2ccccc2C(=O)C(N)=O)n1 [Example 4, 2-(2-(5-chloro-2-(4-(4-(dimethylamino)piperidin-1-yl)-2-methoxyphenylamino)pyrimidin-4-ylamino)phenyl)-2-oxoacetamide] | 4 | 65 | 2 | 8 | 8 | – | – | – | – | –
C=CC(=O)Nc1cc(Nc2ncc(Cl)c(Nc3ccccc3C(=O)C(=O)N(C)C)n2)ccc1OC [Example 65, N-(5-(5-chloro-4-(2-(2-(dimethylamino)-2-oxoacetyl)phenylamino)pyrimidin-2-ylamino)-2-methoxyphenyl)acrylamide] | – | – | – | – | 19 | potent activity | 80 | 25 | – | –
C=CC(=O)Nc1cc(Nc2ncc(Cl)c(Nc3ccccc3C(=O)C(=O)N(C)C)n2)c(OC)cc1F [Example 66, N-(5-(5-chloro-4-(2-(2-(dimethylamino)-2-oxoacetyl)phenylamino)pyrimidin-2-ylamino)-2-fluoro-4-methoxyphenyl)acrylamide] | – | – | – | – | 35 | potent activity | 66 | 24 | – | –
C=CC(=O)Nc1ccc(OC)c(Nc2ncc(Cl)c(Nc3ccccc3C(=O)C(=O)N(C)C)n2)c1 [Example 67, N-(3-(5-chloro-4-(2-(2-(dimethylamino)-2-oxoacetyl)phenylamino)pyrimidin-2-ylamino)-4-methoxyphenyl)acrylamide] | 50 | – | 9 | 85 | 13 | potent activity | – | – | – | –
C=C(CN1CCCCC1)C(=O)Nc1ccc(OC)c(Nc2ncc(Cl)c(Nc3ccccc3C(=O)C(=O)N(C)C)n2)c1 [Example 73, N-(3-(5-chloro-4-(2-(2-(dimethylamino)-2-oxoacetyl)phenylamino)pyrimidin-2-ylamino)-4-methoxyphenyl)-2-(piperidin-1-ylmethyl)acrylamide] | – | – | – | – | 17 | – | 3 | 3 | 67 | 37
C=C(CN(C)C)C(=O)Nc1ccc(OC)c(Nc2ncc(Cl)c(Nc3ccccc3C(=O)C(=O)N(C)C)n2)c1 [Example 78, N-(3-(5-chloro-4-(2-(2-(dimethylamino)-2-oxoacetyl)phenylamino)pyrimidin-2-ylamino)-4-methoxyphenyl)-2-((dimethylamino)methyl)acrylamide] | – | – | – | – | 36 | – | 2 | 3 | 68 | 37
COc1ccc(NC(=O)/C=C/CN2CCOCC2)cc1Nc1ncc(Cl)c(Nc2ccccc2C(=O)C(=O)N(C)C)n1 [Example 79, (E)-N-(3-(5-chloro-4-(2-(2-(dimethylamino)-2-oxoacetyl)phenylamino)pyrimidin-2-ylamino)-4-methoxyphenyl)-4-morpholinobut-2-enamide] | – | – | – | – | 7 | – | 16 | 2 | 92 | 25
C=CC(=O)Nc1ccc(OC)c(Nc2ncc(Cl)c(Nc3ccccc3C(=O)C(=O)N3CCN(C)CC3)n2)c1 [Example 89, N-(3-(5-chloro-4-(2-(2-(4-methylpiperazin-1-yl)-2-oxoacetyl)phenylamino)pyrimidin-2-ylamino)-4-methoxyphenyl)acrylamide] | – | – | – | – | 8 | – | 5 | 1 | 67 | 10
COc1cc(Nc2ncc(Cl)c(Nc3ccccc3C(=O)C(=O)N(C)C)n2)ccc1N1CCN(C(C)=O)CC1 [Example 94, 2-(2-(2-(4-(4-acetylpiperazin-1-yl)-3-methoxyphenylamino)-5-chloropyrimidin-4-ylamino)phenyl)-N,N-dimethyl-2-oxoacetamide] | – | – | – | – | 6 | – | 45 | 9 | 100 | 84
C=C(CN1CCCC1)C(=O)Nc1ccc(OC)c(Nc2ncc(Cl)c(Nc3ccccc3C(=O)C(=O)N(C)C)n2)c1 [Example 97, N-(3-(5-chloro-4-(2-(2-(dimethylamino)-2-oxoacetyl)phenylamino)pyrimidin-2-ylamino)-4-methoxyphenyl)-2-(pyrrolidin-1-ylmethyl)acrylamide] | – | – | – | – | 23 | – | 2 | 6 | 74 | 46
C=CC(=O)Nc1cc(Nc2ncc(C)c(Nc3ccccc3C(=O)C(=O)N(C)C)n2)ccc1OC [Example 101, N-(5-(4-(2-(2-(dimethylamino)-2-oxoacetyl)phenylamino)-5-methylpyrimidin-2-ylamino)-2-methoxyphenyl)acrylamide] | – | – | – | – | 35 | – | 83 | 41 | 110 | 94
C=CC(=O)Nc1cc(Nc2ncc(Cl)c(Nc3ccccc3C(=O)C(=O)N(C)CCN(C)C)n2)ccc1OC [Example 102, N-(5-(5-chloro-4-(2-(2-((2-(dimethylamino)ethyl)(methyl)amino)-2-oxoacetyl)phenylamino)pyrimidin-2-ylamino)-2-methoxyphenyl)acrylamide] | – | – | – | – | 5 | – | 40 | 5 | 98 | 57
C=C(CN1CCCCC1)C(=O)Nc1cccc(Nc2ncc(Cl)c(Nc3ccccc3C(=O)C(=O)N(C)C)n2)c1 [Example 113, N-(3-(5-chloro-4-(2-(2-(dimethylamino)-2-oxoacetyl)phenylamino)pyrimidin-2-ylamino)phenyl)-2-(piperidin-1-ylmethyl)acrylamide] | – | – | – | – | 19 | – | 16 | 3 | 88 | 78
CN(C)C/C=C/C(=O)Nc1cccc(Nc2ncc(Cl)c(Nc3ccccc3C(=O)C(=O)N(C)C)n2)c1 [Example 114, (E)-N-(3-(5-chloro-4-(2-(2-(dimethylamino)-2-oxoacetyl)phenylamino)pyrimidin-2-ylamino)phenyl)-4-(dimethylamino)but-2-enamide] | – | – | – | – | 10 | – | 47 | 8 | 91 | 52
C=CC(=O)Nc1cc(Nc2ncc(Cl)c(Nc3ccccc3C(=O)C(=O)N(C)C)n2)ccc1OC1CCOC1 (stereo not drawn) [Example 124, N-(5-(5-chloro-4-(2-(2-(dimethylamino)-2-oxoacetyl)phenylamino)pyrimidin-2-ylamino)-2-(tetrahydrofuran-3-yloxy)phenyl)acrylamide] | – | – | – | – | 16 | – | 78 | 20 | 109 | 100
C=C(CN(C)CCN(C)C)C(=O)Nc1ccc(OC)c(Nc2ncc(Cl)c(Nc3ccccc3C(=O)C(=O)N(C)C)n2)c1 [Example 126, N-(3-(5-chloro-4-(2-(2-(dimethylamino)-2-oxoacetyl)phenylamino)pyrimidin-2-ylamino)-4-methoxyphenyl)-2-(((2-(dimethylamino)ethyl)(methyl)amino)methyl)acrylamide] | – | – | – | – | 19 | – | 5 | 2 | 93 | 47
C=C(CN1CCCCC1)C(=O)Nc1cc(Nc2ncc(Cl)c(Nc3ccccc3C(=O)C(=O)N(C)C)n2)ccc1N1CCOCC1 [Example 129, N-(5-(5-chloro-4-(2-(2-(dimethylamino)-2-oxoacetyl)phenylamino)pyrimidin-2-ylamino)-2-morpholinophenyl)-2-(piperidin-1-ylmethyl)acrylamide] | – | – | – | – | 8 | – | 24 | 3 | – | 75
CCN(CC)C(=O)C(=O)c1ccccc1Nc1nc(Nc2ccc(N3CCN(C)CC3)c(OC)c2)ncc1Cl [Example 130, 2-(2-(5-chloro-2-(3-methoxy-4-(4-methylpiperazin-1-yl)phenylamino)pyrimidin-4-ylamino)phenyl)-N,N-diethyl-2-oxoacetamide] | – | – | – | – | 13 | – | 84 | 22 | – | 98
